Experimental data from PMC5698089 (Archives of biochemistry and biophysics, 2017).

Key:
Experiment in all cases: surface plasmon resonance, immobilized protein, […] model
Assay type in all cases: binding
[1] = target: T1, SR-B1 (Scavenger receptor class B protein 1) (Homo sapiens, UniProt Q8WTV0)
T1 sequence (Q8WTV0 33-443 limits assumed): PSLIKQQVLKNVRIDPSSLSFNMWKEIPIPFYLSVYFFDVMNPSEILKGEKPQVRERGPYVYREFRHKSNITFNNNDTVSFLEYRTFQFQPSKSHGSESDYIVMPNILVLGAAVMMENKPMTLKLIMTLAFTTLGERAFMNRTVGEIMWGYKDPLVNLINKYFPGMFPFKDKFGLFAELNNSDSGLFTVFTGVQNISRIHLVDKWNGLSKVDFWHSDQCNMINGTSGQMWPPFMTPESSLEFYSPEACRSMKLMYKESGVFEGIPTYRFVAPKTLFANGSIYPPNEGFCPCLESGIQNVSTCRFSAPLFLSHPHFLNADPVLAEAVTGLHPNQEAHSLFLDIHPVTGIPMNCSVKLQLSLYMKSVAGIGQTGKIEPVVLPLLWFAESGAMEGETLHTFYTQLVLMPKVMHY

[2] = target: T2, SR-B2 (Scavenger receptor class B protein 2) (Homo sapiens, UniProt Q14108)
T2 sequence (Q14108 1-478): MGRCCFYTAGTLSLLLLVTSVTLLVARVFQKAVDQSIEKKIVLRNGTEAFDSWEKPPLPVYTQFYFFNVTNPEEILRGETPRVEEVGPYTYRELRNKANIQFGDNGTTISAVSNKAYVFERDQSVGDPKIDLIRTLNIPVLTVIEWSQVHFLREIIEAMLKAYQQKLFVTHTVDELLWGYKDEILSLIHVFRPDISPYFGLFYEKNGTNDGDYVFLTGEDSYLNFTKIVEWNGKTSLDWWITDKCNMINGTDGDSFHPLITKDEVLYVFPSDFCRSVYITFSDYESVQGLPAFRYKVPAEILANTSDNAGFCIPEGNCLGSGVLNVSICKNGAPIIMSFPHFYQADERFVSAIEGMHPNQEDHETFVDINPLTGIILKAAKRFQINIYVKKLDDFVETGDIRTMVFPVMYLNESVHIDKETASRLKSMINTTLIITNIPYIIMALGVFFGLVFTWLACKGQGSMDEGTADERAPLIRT

[3] = target: CD36 (Cluster determinant 36) (Homo sapiens, UniProt P16671)
Chain of CD36 (Cluster determinant 36) (P16671 30-439 limits assumed): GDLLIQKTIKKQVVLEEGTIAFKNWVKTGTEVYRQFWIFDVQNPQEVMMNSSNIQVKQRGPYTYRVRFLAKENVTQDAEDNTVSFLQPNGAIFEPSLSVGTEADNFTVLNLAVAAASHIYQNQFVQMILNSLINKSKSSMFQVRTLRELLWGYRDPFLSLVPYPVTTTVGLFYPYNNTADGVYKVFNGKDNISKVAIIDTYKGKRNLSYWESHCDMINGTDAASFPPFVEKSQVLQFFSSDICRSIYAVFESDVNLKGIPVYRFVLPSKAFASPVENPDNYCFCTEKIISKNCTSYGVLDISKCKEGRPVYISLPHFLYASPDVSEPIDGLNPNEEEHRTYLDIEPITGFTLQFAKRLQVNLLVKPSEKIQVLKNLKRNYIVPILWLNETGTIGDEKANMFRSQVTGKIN

Kd [1] [µM] | Kd [2] [µM] | Kd [3] [µM] | Structure (SMILES)
2.04 ± 0.04 | 2.51 ± 0.04 | 0.73 ± 0.006 | CC1=C[C@H](O)CC(C)(C)[C@H]1/C=C/C(C)=C/C=C/C(C)=C/C=C/C=C(C)/C=C/C=C(C)/C=C/C1=C(C)C[C@@H](O)CC1(C)C [lutein]
3.1 ± 0.2 | 3.9 ± 0.04 | 1.66 ± 0.01 | CC1=C(/C=C/C(C)=C/C=C/C(C)=C/C=C/C=C(C)/C=C/C=C(C)/C=C/C2=C(C)C[C@H](O)CC2(C)C)C(C)(C)C[C@H](O)C1 [meso-zeaxanthin]
1.6 ± 0.1 | 1.53 ± 0.04 | 0.92 ± 0.007 | CC1=C(/C=C/C(C)=C/C=C/C(C)=C/C=C/C=C(C)/C=C/C=C(C)/C=C/C2=C(C)C[C@@H](O)CC2(C)C)C(C)(C)C[C@H](O)C1 [zeaxanthin]
